Test results published in patent US20230181472A1, “PROCESS OF MAKING IVABRADINE HYDROCHLORIDE DRUG PRODUCT” (Amgen Inc., priority 2018, published 2023).
Structures can show the parent of a compound that is named as a salt.

Assay: FT-Raman peak width (FWHM) at 705 cm^−1 as a measure of amorphous ivabradine hydrochloride
Format: physicochemical
Conditions: peak heights normalized at 705 cm^−1, broader peak = more amorphous content
Text: During characterization of the ivabradine hydrochloride chrystalline forms, Fourier Transform Raman Spectroscopy was used to evaluate different peak shapes. A Thermo Scientific Nicolet NXR FT-Raman equipped with liquid nitrogen cooled germanium (Ge) detector (Thermo Scientific) was used for FT-Raman signal collection. Peak broadening was most defined at a Raman shift of 705 cm^−1. The peak heights were normalized at 705 cm^−1 and the width of the peak was characterized as full width at half maximum (FWHM). Table 3 highlights the FWHM of pure tetrahydrate and amorphous drug substance with an approximate doubling of peak width for purely amorphous ivabradine hydrochloride. […] Modifying the process conditions as described herein produced FWHM values of 10.3 and 9.6 cm^−1 for the 5 mg and 7.5 mg drug products respectively showing the significant reduction in the amount of amorphous ivabradine hydrochloride present in the drug product.

Structure (SMILES) | FWHM (cm^−1) of 705 cm^−1 peak [cm⁻¹]
COc1cc2c(cc1OC)CC(=O)N(CCCN(C)C[C@H]1Cc3cc(OC)c(OC)cc31)CC2 [Ivabradine hydrochloride amorphous (pure)] | 16.3
COc1cc2c(cc1OC)CC(=O)N(CCCN(C)C[C@H]1Cc3cc(OC)c(OC)cc31)CC2 [Ivabradine hydrochloride tetrahydrate (pure)] | 8.4
